Columns and labels:
PCSK9/LDLR complex = assay: PCSK9/LDLR protein complementation assay (PCA) in transfected HEK293 cells; format: cell-based, human
Experimental: In one of the embodiments of the invention, the cell-based assay consists of transfected cDNAs encoding full-length PCSK9 and LDL receptor, each sequence linked in-frame to rationally designed fragments of a variant of green fluorescent protein. These two plasmid constructs were co-expressed in human HEK cells plated in 384-well poly-lysine coated plates. After 24-48 hours of incubation, drugs (or vehicle controls) were added to the media, and the existence and localization of PCSK9/LDL receptor complexes was quantified on an Opera automated confocal fluorescence microscopy platform (Perkin Elmer). Images were subjected to automated image analysis, and results quantified and subjected to statistical analysis.
HEK 293T cells were seeded in normal growth media containing DMEM and 10% FBS at 1.5×10^4 in PDL-coated 96-well plates 24 hours prior to transfection. Cells were transfected with 50 ng of each construct DNA per well with Fugene 6, using conditions recommended by the manufacturer. Cells were allowed to express the construct pairs for 24- or 48 h, then the cells were simultaneously fixed and stained with either a 1:300 dilution of Hoescht 33342 (Molecular Probes, Eugene, Oreg.) or a 1:1000 dilution of Draq5 (Biostatus, Shepshed, Leicestershire, U.K.) in 4% formaldehyde for 15 minutes at room temperature. The cells were washed to remove fixative, and overlaid with a small volume of Hank's Buffered Salt Solution. Images were acquired on a Discovery-1 (Molecular Devices) epifluorescence microscope using the 20× objective, and DAPI and FITC filter sets. (with excitation at 350 and 488 nm wave lengths) or on an Opera (Perkin Elmer) confocal microscope using the 20× water objective with the following excitation and emission settings: Ex 488 nm/Em 535 nm (YFP) and Ex 635 nm/Em 640 nm (Draq5).
To test for in vitro PCSK9 function and activity, we developed a protein complementation assay (PCA) with PCSK9-IFP2 and the LDL-IFP1 receptor (PCSK9/LDLR). Expression of wild type PCSK9-IFP2 in transfected HEK293 cells was confirmed by Western blot using an antibody against YFP (FIG. 2). Cotranfection of HEK cells with increasing ratios of PCSK9-IFP2 and LDLR-IFP1 DNA constructs results in increased PCA signal (FIG. 3) but not when each construct is expressed alone. The intracellular localization of the wild-type PCSK9-IFP2/LDLR-IFP1 PCA interaction is similar to the known localization of wild type PCSK9 in the endoplasmic reticulum (ER) and post-ER compartments in various cell types (20, 21). The PCA signal for the PCSK9-IFP2/LDLR-IFP1 pair appears to be localized to multiple intracellular trafficking sites including the ER, endosomes and the cell surface.
In order to test the viability of using the PCSK9-IFP2/LDLR-IFP1 PCA as a drug discovery tool, we tested a drug plate containing 50 known drugs at 3 doses in the assay (Table 10) as well as several protein kinase inhibitors (representative compounds are depicted in Table 11). […] We observed the following effects of known compounds on the PCSK9/LDLR complex:
A collection of small molecular weight compounds was screened. […] To expand on this observation, we characterized the effects of a larger panel of kinase inhibitors on the PCSK9/LDLr complex. 47 compounds representing a broad range of known receptor tyrosine and serine-threonine kinase inhibitors were assessed (table 2). A subset was identified that had inhibitory effects on the PCSK9/LDLr complex (degree of assay inhibition relative to control is indicated by “% control”, Table 2).

HepG2 cells = assay: LDL uptake in HepG2 cells (human LDL conjugated to DyLight 549); format: cell-based; settings: for effect on LDL uptake (in words): HepG2, 10 μM; for x-fold increase (hepatic LDL uptake): HepG2; for % Control (Table 5, titled LDL uptake in Hepg2 cells): values repeat Table 2
From the text: The assay uses human LDL conjugated to DyLight™ 549 as a fluorescent probe for detection of LDL uptake into HepG2 cells.
We assessED whether compounds that inhibit the PCSK9/LDLr assay would have activity on LDL uptake and metabolism in a relevant cell type. PCSK9 is thought to be a negative regulator of LDLr. Thus, we predicted that compounds inhibiting the PCSK9 PCA signal would increase LDL receptor expression and LDL uptake. An assay using human LDL conjugated to DyLight™ 549 as a fluorescent probe for detection of LDL uptake into cultured human hepatocytes. A separate assay, using an LDL receptor-specific polyclonal antibody and a DyLight™ 488-conjugated secondary antibody, was also performed to localize LDL receptors
Quantitation of the increased LDL uptake of these and other kinase inhibitors targeting Akt, mTOR, p38, GSK3 and VEGF is shown in Table 4.

Compound: Cc1ccc(NC(=O)c2ccc(CN3CCN(C)CC3)cc2)cc1Nc1nccc(-c2cccnc2)n1 [Imatinib]
- effect on formation of PCSK9/LDLR complexes / PCA signal (in words) (PCSK9/LDLR complex): inhibit the formation of PCSK9/LDLR complexes
- % Control (PCSK9/LDLr PCA) (PCSK9/LDLR complex; dose 10 μM): 55%
- effect on LDL uptake (in words) (HepG2 cells): dramatic increase in LDL uptake
- x-fold increase (LDL uptake in Hepg2 cells) (HepG2 cells; dose 3 μM): 2.4 x-fold
- x-fold increase (LDL uptake in Hepg2 cells) (HepG2 cells; dose 10 μM): 5.4 x-fold
- x-fold increase (hepatic LDL uptake) (HepG2 cells; dose 10 µM): 5.4 x-fold
- % Control (Table 5, titled LDL uptake in Hepg2 cells) (HepG2 cells; dose 10 μM): 55%
- x-fold increase (hepatic LDL uptake) (HepG2 cells; dose 3 µM): 2.4 x-fold

Compound: CCOc1cc2ncc(C#N)c(Nc3ccc(OCc4ccccn4)c(Cl)c3)c2cc1NC(=O)/C=C/CN(C)C [Neratinib]
- % Control (PCSK9/LDLr PCA) (PCSK9/LDLR complex; dose 1 μM): 64%
- % Control (PCSK9/LDLr PCA) (PCSK9/LDLR complex; dose 3 μM): 61%
- effect on LDL uptake (in words) (HepG2 cells): dramatic increase in LDL uptake
- x-fold increase (LDL uptake in Hepg2 cells) (HepG2 cells; dose 10 μM): 2.2 x-fold
- x-fold increase (hepatic LDL uptake) (HepG2 cells; dose 10 µM): 2.2 x-fold

Compound: Cc1ccc([N+](=O)[O-])cc1S(=O)(=O)N(C)/N=C/c1cnc2ccc(Br)cn12 [PI 3-Kalpha Inhibitor VIII, N-((1E)-(6-Bromoimidazo[1,2-a]pyridin-3-yl)methylene)-Nprime-methyl-Ndoubleprime-(2-methyl-5-nitrobenzene)sulfonohydrazide]
- % Control (PCSK9/LDLr PCA) (PCSK9/LDLR complex; dose 1 μM): 44%
- % Control (PCSK9/LDLr PCA) (PCSK9/LDLR complex; dose 3 μM): 39%
- % Control (PCSK9/LDLr PCA) (PCSK9/LDLR complex; dose 10 μM): 29%
- % Control (Table 5, titled LDL uptake in Hepg2 cells) (HepG2 cells; dose 1 μM): 44%
- % Control (Table 5, titled LDL uptake in Hepg2 cells) (HepG2 cells; dose 3 μM): 39%

Compound: CC(C)[C@H](CO)Nc1nc(Nc2cccc(Cl)c2)c2ncn(C(C)C)c2n1 [Purvalanol A]
- % Control (PCSK9/LDLr PCA) (PCSK9/LDLR complex; dose 15 μM): 52%
- % Control (Table 5, titled LDL uptake in Hepg2 cells) (HepG2 cells; dose 15 μM): 52%

Compound: CNC(=O)c1cc(Oc2ccc(NC(=O)Nc3ccc(Cl)c(C(F)(F)F)c3)cc2)ccn1 [Sorafenib]
- % Control (PCSK9/LDLr PCA) (PCSK9/LDLR complex; dose 3 μM): 57%
- % Control (PCSK9/LDLr PCA) (PCSK9/LDLR complex; dose 10 μM): 58%
- % Control (Table 5, titled LDL uptake in Hepg2 cells) (HepG2 cells; dose 3 μM): 57%
- % Control (Table 5, titled LDL uptake in Hepg2 cells) (HepG2 cells; dose 10 μM): 58%

Compound: COc1cc2ncnc(Nc3ccc(Oc4ccccc4)cc3)c2cc1OC [Src Kinase Inhibitor I, 4-(4-prime-Phenoxyanilino)-6,7-dimethoxyquinazoline]
- % Control (PCSK9/LDLr PCA) (PCSK9/LDLR complex; dose 12.5 μM): 50%
- effect on LDL uptake (in words) (HepG2 cells): dramatic increase in LDL uptake
- x-fold increase (LDL uptake in Hepg2 cells) (HepG2 cells; dose 3 μM): 2.3 x-fold
- x-fold increase (LDL uptake in Hepg2 cells) (HepG2 cells; dose 10 μM): 5.1 x-fold
- x-fold increase (hepatic LDL uptake) (HepG2 cells; dose 10 µM): 5.1 x-fold
- % Control (Table 5, titled LDL uptake in Hepg2 cells) (HepG2 cells; dose 12.5 μM): 50%
- x-fold increase (hepatic LDL uptake) (HepG2 cells; dose 3 µM): 2.3 x-fold

Compound: COc1cc2c(Nc3ccc(Br)cc3F)ncnc2cc1OCC1CCN(C)CC1 [Vandetanib]
- % Control (PCSK9/LDLr PCA) (PCSK9/LDLR complex; dose 100 μM): 39%
- x-fold increase (LDL uptake in Hepg2 cells) (HepG2 cells; dose 1 μM): 1.5 x-fold
- x-fold increase (hepatic LDL uptake) (HepG2 cells; dose 1 µM): 1.5 x-fold
- x-fold increase (LDL uptake in Hepg2 cells) (HepG2 cells; dose 3 μM): 2.0 x-fold
- x-fold increase (hepatic LDL uptake) (HepG2 cells; dose 3 µM): 2.0 x-fold

Compound: Indirubin-3′-Monoxime
- % Control (PCSK9/LDLr PCA) (PCSK9/LDLR complex; dose 10 μM): 64%
- % Control (Table 5, titled LDL uptake in Hepg2 cells) (HepG2 cells; dose 10 μM): 64%

From patent US20100081632A1, “High-content and high throughput assays for identification of lipid-regulating pathways, and novel therapeutic agents for lipid disorders” (Odyssey Thera, Inc., priority 2008, published 2010)
